Among the data in US9586963B2 (GENFIT, priority 2011, dated 2017) are EC50 and Emax values, retold here.

A word on the EC50: it is the concentration that produces a half-maximal response. High values mean a less potent agent, low ones a more potent agent.

For one assay, the target named is T1, Rev-Erb alpha (Homo sapiens, UniProt P20393).
T1 sequence (P20393 284-614 limits assumed): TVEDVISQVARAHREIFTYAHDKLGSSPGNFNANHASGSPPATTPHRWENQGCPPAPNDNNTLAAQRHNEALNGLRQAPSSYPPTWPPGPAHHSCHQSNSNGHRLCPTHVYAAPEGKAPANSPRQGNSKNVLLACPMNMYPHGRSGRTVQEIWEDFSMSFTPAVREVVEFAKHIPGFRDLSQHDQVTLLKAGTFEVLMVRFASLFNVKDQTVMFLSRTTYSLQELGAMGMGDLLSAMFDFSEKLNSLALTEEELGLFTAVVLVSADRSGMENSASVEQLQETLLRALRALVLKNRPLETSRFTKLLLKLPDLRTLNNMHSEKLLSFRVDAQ
The assay can be described thus: M2H (mammalian two-hybrid) cellular activation assay of Rev-Erb alpha. The assay is classed as cell-based. The note with it: M2H assay, HEK293 cells, Gal4-Rev-Erb alpha / VP16-NCoR, luciferase reporter. In outline:
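Six-point dose-response, 18 h, 37 °C, serum-free, in HEK293 cells carrying a Gal4-RE luciferase reporter with Gal4-Rev-Erb alpha or beta plus VP16-NCoR (corepressor interaction readout). EC50 and TOP activation (%) derived from luminescence across four experiments.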
`Clc1nnc2ccc(Oc3cc(CNC4CC4)ccc3-c3ccccc3)nn12` [Cpd.4-178, 3-chloro-6-(4-cyclopropylaminomethylbiphenyl-2-yloxy)-[1,2,4]triazolo[4,3-b]pyridazine] gave a half-maximal effective concentration (EC50) of 1000 to 6000 nM.

In turn, `Clc1nnc2ccc(Oc3cc(CNC4CCCC4)ccc3-c3ccccc3)nn12` [Cpd.4-179, 3-chloro-6-(4-cyclopentylaminomethylbiphenyl-2-yloxy)-[1,2,4]triazolo[4,3-b]pyridazine] registered a 50% effective concentration (EC50) of 1000 to 6000 nM.

Compound `Clc1nnc2ccc(Oc3cc(CNCC4CCCO4)ccc3-c3ccccc3)nn12` (centres unmarked) [Cpd.4-180] came in with an EC50 of more than 6000 nM.

`CS(=O)(=O)N1CCN(Cc2ccc(-c3ccccc3)c(Oc3ccc4nnc(Cl)n4n3)c2)CC1` [Cpd.4-182, 3-chloro-6-(4-(4-methanesulfonylpiperazin-1-ylmethyl)biphenyl-2-yloxy)-[1,2,4]triazolo[4,3-b]pyridazine] came in with a concentration giving a half-maximal response (EC50) of 1000 to 6000 nM.

Regarding `CC(C)(C)OC(=O)NCc1ccc(-c2ccccc2)c(Oc2ccc3nnc(Cl)n3n2)c1` [Cpd.4-186, 3-chloro-6-(4-tertbutyloxycarbonylaminomethylbiphenyl-2-yloxy)-[1,2,4]triazolo[4,3-b]pyridazine], the EC50 fell in the range of 1000 to 6000 nM.

On to `CC(C)C(=O)Nc1ccc(Oc2ccc3nnc(Cl)n3n2)c(-c2ccccc2)c1` [Cpd.4-192, 3-chloro-6-(5-isopropylcarbonylamino-biphenyl-2-yloxy)-[1,2,4]triazolo[4,3-b]pyridazine], for which the EC50 was 1000 to 6000 nM.

Compound `Cc1nc(-c2ccc(-c3ccccc3)c(Oc3ccc4nnc(Cl)n4n3)c2)no1` [Cpd.4-197, 3-chloro-6-(5-(5-methyl-1,2,4-oxadiazol-3-yl)-2-(phenyl)phenoxy)-[1,2,4]triazolo[4,3-b]pyridazine] displayed an EC50 of 100 to 1000 nM.

In the case of `Cc1nc(-c2ccc(Oc3ccc4nnc(Cl)n4n3)c(-c3ccccc3)c2)no1` [Cpd.4-198, 3-chloro-6-(4-(5-methyl-1,2,4-oxadiazol-3-yl)-2-(phenyl)phenoxy)-[1,2,4]triazolo[4,3-b]pyridazine], the EC50 was 100 to 1000 nM.

The compound `Cc1nc(-c2ccc(-c3cccnc3)c(Oc3ccc4nnc(Cl)n4n3)c2)no1` [Cpd.4-199, 3-chloro-6-(5-(5-methyl-1,2,4-oxadiazol-3-yl)-2-(pyridin-3-yl)phenoxy)-[1,2,4]triazolo[4,3-b]pyridazine] had a concentration giving a half-maximal response (EC50) of more than 6000 nM.

In the case of `FC(F)(F)c1ccc(-c2ccccc2)c(Oc2nn3c(Cl)nnc3c3ccccc23)c1` [Cpd.5-1, 3-chloro-6-(4-trifluoromethyl-biphenyl-2-yloxy)-[1,2,4]triazolo[3,4-a]phthalazine], the EC50 is less than 100 nM.

In turn, `Fc1ccc2c(Oc3cc(C(F)(F)F)ccc3-c3ccccc3)nn3c(Cl)nnc3c2c1` [Cpd.5-2, 3-chloro-6-(4-trifluoromethyl-biphenyl-2-yloxy)-9-fluoro-[1,2,4]triazolo[3,4-a]phthalazine] registered an EC50 of 100 to 1000 nM.

Regarding `CCc1c(Oc2cc(C(F)(F)F)ccc2-c2ccccc2)nn2c(Cl)nnc2c1CC` [Cpd.5-12, 3-chloro-7,8-diethyl-6-(4-trifluoromethyl-biphenyl-2-yloxy)-[1,2,4]triazolo[4,3-b]pyridazine], the EC50 was 100 to 1000 nM.

The compound `Cc1ccc(-c2ccc(C(F)(F)F)cc2Oc2cc(C)c3nnc(Cl)n3n2)cn1` [Cpd.5-16, 3-chloro-8-methyl-6-(2-(6-methylpyridin-3-yl)-5-(trifluoromethyl)phenoxy)-[1,2,4]triazolo[4,3-b]pyridazine] displayed a half-maximal effective concentration (EC50) of 100 to 1000 nM.

`Cc1ccc(-c2ccc(C(F)(F)F)cc2Oc2nn3c(Cl)nnc3cc2C)cn1` [Cpd.5-17, 3-chloro-7-methyl-6-(2-(6-methylpyridin-3-yl)-5-(trifluoromethyl)phenoxy)-[1,2,4]triazolo[4,3-b]pyridazine] displayed a concentration giving a half-maximal response (EC50) of 100 to 1000 nM.

The compound `Cc1ccc(-c2ccc(C(F)(F)F)cc2Oc2nn3c(Cl)nnc3c3ccccc23)cn1` [Cpd.5-18, 3-chloro-6-(2-(6-methylpyridin-3-yl)-5-(trifluoromethyl)phenoxy)-[1,2,4]triazolo[3,4-a]phthalazine] returned an EC50 of 100 to 1000 nM.

Take `Cc1ncccc1-c1ccc(C(F)(F)F)cc1Oc1cc(C)c2nnc(Cl)n2n1` [Cpd.5-19, 3-chloro-8-methyl-6-(2-(2-methylpyridin-3-yl)-5-(trifluoromethyl)phenoxy)-[1,2,4]triazolo[4,3-b]pyridazine]: the EC50 lay in the range of 100 to 1000 nM.

In turn, `Cc1cc2nnc(Cl)n2nc1Oc1cc(C(F)(F)F)ccc1-c1cccnc1C` [Cpd.5-20, 3-chloro-7-methyl-6-(2-(2-methylpyridin-3-yl)-5-(trifluoromethyl)phenoxy)-[1,2,4]triazolo[4,3-b]pyridazine] had a half-maximal effective concentration (EC50) of 100 to 1000 nM.

The compound `Cc1ncccc1-c1ccc(C(F)(F)F)cc1Oc1nn2c(Cl)nnc2c2ccccc12` [Cpd.5-21, 3-chloro-6-(2-(2-methylpyridin-3-yl)-5-(trifluoromethyl)phenoxy)-[1,2,4]triazolo[3,4-a]phthalazine] gave an EC50 of 100 to 1000 nM.

The compound `FC(F)(F)c1ccc(-c2cncnc2)c(Oc2nn3c(Cl)nnc3c3ccccc23)c1` [Cpd.5-22, 3-chloro-6-(2-(pyrimidin-5-yl)-5-(trifluoromethyl)phenoxy)-[1,2,4]triazolo[3,4-a]phthalazine] had an EC50 of 100 to 1000 nM.

Regarding `COc1ncccc1-c1ccc(C(F)(F)F)cc1Oc1nn2c(Cl)nnc2c(C)c1C` [Cpd.5-25, 3-chloro-7,8-dimethyl-6-((2-(2-methoxypyridin-3-yl))-5-(trifluoromethyl)phenoxy)-[1,2,4]triazolo[4,3-b]pyridazine], the EC50 lay in the range of 1000 to 6000 nM.

As to `COc1ncc(C)cc1-c1ccc(C(F)(F)F)cc1Oc1nn2c(Cl)nnc2cc1C` [Cpd.5-28, 3-chloro-7-methyl-6-((2-(2-methoxy-5-methylpyridin-3-yl))-5-(trifluoromethyl)phenoxy)-[1,2,4]triazolo[4,3-b]pyridazine], the 50% effective concentration (EC50) was 1000 to 6000 nM.

Regarding `Cc1cc2nnc(Cl)n2nc1Oc1cc(C(F)(F)F)ccc1-c1cncnc1` [Cpd.5-29, 3-chloro-7-methyl-6-(2-(pyrimidin-5-yl)-5-(trifluoromethyl)phenoxy)-[1,2,4]triazolo[4,3-b]pyridazine], the EC50 is 1000 to 6000 nM.

On to `Cc1cc(Oc2cc(C(F)(F)F)ccc2-c2cncnc2)nn2c(Cl)nnc12` [Cpd.5-30, 3-chloro-8-methyl-6-(2-(pyrimidin-5-yl)-5-(trifluoromethyl)phenoxy)-[1,2,4]triazolo[4,3-b]pyridazine], for which the concentration giving a half-maximal response (EC50) was in the range of 1000 to 6000 nM.

In the case of `Cc1cc2nnc(Cl)n2nc1Oc1c(-c2cncnc2)ccc(C(F)(F)F)c1F` [Cpd.5-31, 3-chloro-6-(2-fluoro-6-(pyrimidin-5-yl)-3-(trifluoromethyl)phenoxy)-7-methyl-[1,2,4]triazolo[4,3-b]pyridazine], the 50% effective concentration (EC50) was in the range of 1000 to 6000 nM.

Regarding `COc1ncc(-c2ccc(C(F)(F)F)cc2Oc2cc(C)c3nnc(Cl)n3n2)cn1` [Cpd.5-34, 3-chloro-8-methyl-6-((2-(2-methoxypyrimidin-5-yl))-5-(trifluoromethyl)phenoxy)-[1,2,4]triazolo[4,3-b]pyridazine], the concentration for a half-maximal effect (EC50) is 100 to 1000 nM.

For `COc1ncc(-c2ccc(C(F)(F)F)cc2Oc2nn3c(Cl)nnc3cc2C)cn1` [Cpd.5-35, 3-chloro-7-methyl-6-((2-(2-methoxypyrimidin-5-yl))-5-(trifluoromethyl)phenoxy)-[1,2,4]triazolo[4,3-b]pyridazine], the concentration for a half-maximal effect (EC50) is 1000 to 6000 nM.

Take `COc1ncc(-c2ccc(C(F)(F)F)cc2Oc2nn3c(Cl)nnc3c3ccccc23)cn1` [Cpd.5-36, 3-chloro-6-((2-(2-methoxypyrimidin-5-yl))-5-(trifluoromethyl)phenoxy)-[1,2,4]triazolo[3,4-a]phthalazine]: the EC50 is 100 to 1000 nM.

In the case of `Cc1cc(Oc2cc(C(F)(F)F)ccc2-c2cncnc2C(C)C)nn2c(Cl)nnc12` [Cpd.5-38, 3-chloro-8-methyl-6-((2-(4-isopropylpyrimidin-5-yl))-5-(trifluoromethyl)phenoxy)-[1,2,4]triazolo[4,3-b]pyridazine], the EC50 fell in the range of 1000 to 6000 nM.

`Cc1cc(Oc2cccc(C(F)(F)F)c2-c2cncnc2)nn2c(Cl)nnc12` [Cpd.5-42, 3-chloro-8-methyl-6-(2-(pyrimidin-5-yl)-3-(trifluoromethyl)phenoxy)-[1,2,4]triazolo[4,3-b]pyridazine]: the concentration giving a half-maximal response (EC50) was in the range of 1000 to 6000 nM.

`Cc1ncncc1-c1ccc(C(F)(F)F)cc1Oc1cc(C)c2nnc(Cl)n2n1` [Cpd.5-45, 3-chloro-8-methyl-6-(2-(4-methylpyrimidin-5-yl)-5-(trifluoromethyl)phenoxy)-[1,2,4]triazolo[4,3-b]pyridazine]: the half-maximal effective concentration (EC50) fell in the range of 1000 to 6000 nM.

`Cc1cc2nnc(Cl)n2nc1Oc1cc(C(F)(F)F)ccc1-c1cncnc1C` [Cpd.5-47, 3-chloro-7-methyl-6-(2-(4-methylpyrimidin-5-yl)-5-(trifluoromethyl)phenoxy)-[1,2,4]triazolo[4,3-b]pyridazine] yielded a concentration giving a half-maximal response (EC50) of 1000 to 6000 nM.

Consider `COc1ncc(-c2ccc(C(F)(F)F)cc2Oc2cc(C)c3nnc(Cl)n3n2)c(OC)n1` [Cpd.5-50, 3-chloro-6-(2-(2,4-dimethoxypyrimidin-5-yl)-5-(trifluoromethyl)phenoxy)-8-methyl-[1,2,4]triazolo[4,3-b]pyridazine], for which the EC50 is 1000 to 6000 nM.

`COc1ncc(-c2ccc(C(F)(F)F)cc2Oc2nn3c(Cl)nnc3cc2C)c(OC)n1` [Cpd.5-51, 3-chloro-6-(2-(2,4-dimethoxypyrimidin-5-yl)-5-(trifluoromethyl)phenoxy)-7-methyl-[1,2,4]triazolo[4,3-b]pyridazine] displayed an EC50 of 1000 to 6000 nM.

Still in this assay, the particulars now being: M2H assay, HEK293 cells; relative to DMSO; at the tested dose; read-out: TOP activation.
As for `Clc1nnc2ccc(Oc3cc(CNCC4CCCO4)ccc3-c3ccccc3)nn12` (centres unmarked) [Cpd.4-180], the Emax was more than 130%.

As for `Cc1nc(-c2ccc(-c3cccnc3)c(Oc3ccc4nnc(Cl)n4n3)c2)no1` [Cpd.4-199, 3-chloro-6-(5-(5-methyl-1,2,4-oxadiazol-3-yl)-2-(pyridin-3-yl)phenoxy)-[1,2,4]triazolo[4,3-b]pyridazine], the Emax was more than 130%.
